How the values were obtained:
[1] = test system: cryopreserved hepatocytes; assay: Hepatocyte stability and metabolite profiling, minipig; type: in vitro ADME; conditions: minipig hepatocyte samples, 40 and 120 minute
Description: The objective of this study was to investigate the stability of the test compound, CBG, in human, rat, dog, mouse, monkey and minipig cryopreserved hepatocytes. Follow-on metabolite profiling was performed.
CBG was incubated up to 2 hr with cryopreserved hepatocytes. Cryopreserved hepatocytes in suspension were added to test compound in supplemented media following pre-incubation to initiate the reaction and the reactions were stopped by organic solvent at the appropriate time points. The termination plates were centrifuged and sample supernatants were analysed using Cyprotex generic LC MS/MS conditions to generate intrinsic clearance values for CBG. Two control compounds for each species were included in the assay and if the values for these compounds were not within the specified limits the results were rejected and the experiment repeated.
Following the hepatocyte stability assay the samples were 59 tilized for metabolite profiling using suitable high-resolution LC-MS/MS conditions. The 40 and 60 minute human samples, 20 and 120 minute rat samples, 10 and 20 minute dog and monkey samples, 20 and 60 minute mouse samples, and 40 and 120 minute minipig samples were compared against the 0 minute control sample to establish which and how many metabolites were formed. […]
The areas and percentages reported for the parent and metabolites were calculated using the XIC data. […]

rUGT1A9 = biological target: T1, rUGT1A9 (Homo sapiens, UniProt O60656); assay: Inhibition of CBG glucuronidation by Compound 1, rUGT1A9; type: in vitro ADME; conditions: for CBG detected (CBG loss) / CBG detected, Percent of control / CBG glucuronide formed / CBG glucuronide formed, Percent of control: 4 min
T1 sequence (O60656 26-530): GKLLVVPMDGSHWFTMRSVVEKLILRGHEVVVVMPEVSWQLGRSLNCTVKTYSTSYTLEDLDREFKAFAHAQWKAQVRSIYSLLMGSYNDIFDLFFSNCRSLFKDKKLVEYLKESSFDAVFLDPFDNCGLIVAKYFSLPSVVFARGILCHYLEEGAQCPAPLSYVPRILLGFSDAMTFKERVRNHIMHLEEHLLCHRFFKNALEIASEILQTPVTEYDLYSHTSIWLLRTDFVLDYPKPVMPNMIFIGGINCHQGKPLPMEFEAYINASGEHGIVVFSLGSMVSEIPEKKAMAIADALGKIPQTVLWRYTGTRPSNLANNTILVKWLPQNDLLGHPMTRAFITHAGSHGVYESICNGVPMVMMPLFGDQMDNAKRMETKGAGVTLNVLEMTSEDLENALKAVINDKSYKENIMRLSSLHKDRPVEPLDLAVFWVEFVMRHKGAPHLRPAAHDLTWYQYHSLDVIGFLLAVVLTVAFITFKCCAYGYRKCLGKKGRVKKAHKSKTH
Description: The purpose of this experiment was to determine if Compound 1 can inhibit the glucuronidation of CBG, as both are substrates for the two major isoforms responsible for CBG glucuronidation.
The ability of Compound 1 to inhibit the metabolism of CBG by UGT1A9 and UGT2B7 enzymes was investigated to ascertain the IC50 values for direct inhibition. The incubation conditions (substrate concentration, incubation time and protein concentration) were determined in Part 2 of the protocol such that CBG metabolism remains near initial rate conditions (e.g., 20-30% substrate loss).
Preliminary experiments were conducted in Part I of the protocol, first to establish the HPLC/MS/MS bioanalytical methods for CBG and CBG glucuronide. […] The second set of preliminary experiments (Part 2), as mentioned, were conducted to optimize the incubation conditions as described above. Incubations (at 37° C.) contained Tris-HCl buffer (100 mM, pH 7.7), MgCl2 (10 mM), EDTA (1 mM, pH 7.4) and UDP-glucuronic acid (UDPGA, 10 mM). CBG was added to each incubation in DMSO such that the final percent of DMSO was 1% v/v, or less. Reactions were terminated by the addition of an equal volume of stop reagent, acetonitrile containing an internal standard. The samples were centrifuged (e.g., 920 RCF for 10 minutes at 10° C.), and the supernatant fractions were analyzed by LC-MS/MS to determine the amount of CBG remaining and formation of one metabolite (CBG glucuronide).
To examine its ability to act as a direct inhibitor of the above listed enzymes, Compound 1 was be added to recombinant human UGT enzyme together with CBG. Reactions were initiated with UDPGA and were carried out in duplicate. For all assays, reactions were terminated by the addition of acetonitrile with or without 2% v/v formic acid, including the internal standard.
Authentic metabolite reference standards were used for quantitation of the probe substrate metabolites and as internal standards. Based on the information obtained in the Part 2 experiments, the following table summarizes the experiments performed, assessing the inhibitory effects of Compound 1 was conducted as follows:
The amounts of CBG present at the end of the incubation periods was determined. For inhibition to have occurred, the amounts of CBG present at the end of the incubation period needed to increase, and the amounts of glucuronide formed needed to decrease.

CCCCCc1cc(O)c(C/C=C(\C)CCC=C(C)C)c(O)c1 [CBG, cannabigerol]
metabolites observed (number) [1]: four

CCCCCc1cc(O)c(C/C=C(\C)CCC=C(C)C)c(OC)c1 [Compound 1, (E)-2-(3,7-dimethylocta-2,6-dien-1-yl)-3-methoxy-5-pentylphenol]
CBG detected (CBG loss) (rUGT1A9; 10 μM CBG + 0.01 μM Compound 1): 1250 pmol | CBG detected, Percent of control (rUGT1A9; 10 μM CBG + 0.01 μM Compound 1): 109 | CBG glucuronide formed (rUGT1A9; 10 μM CBG + 0.01 μM Compound 1): 350000 area ratio | CBG glucuronide formed, Percent of control (rUGT1A9; 10 μM CBG + 0.01 μM Compound 1): 94.4 | CBG detected (CBG loss) (rUGT1A9; 10 μM CBG + 0.03 μM Compound 1): 1250 pmol | CBG detected, Percent of control (rUGT1A9; 10 μM CBG + 0.03 μM Compound 1): 110 | CBG glucuronide formed (rUGT1A9; 10 μM CBG + 0.03 μM Compound 1): 360000 area ratio | CBG glucuronide formed, Percent of control (rUGT1A9; 10 μM CBG + 0.03 μM Compound 1): 97.1 | CBG detected (CBG loss) (rUGT1A9; 10 μM CBG + 0.1 μM Compound 1): 1280 pmol | CBG detected, Percent of control (rUGT1A9; 10 μM CBG + 0.1 μM Compound 1): 112 | CBG glucuronide formed, Percent of control (rUGT1A9; 10 μM CBG + 0.1 μM Compound 1): 92.0 | CBG detected (CBG loss) (rUGT1A9; 10 μM CBG + 0.3 μM Compound 1): 1300 pmol | CBG detected, Percent of control (rUGT1A9; 10 μM CBG + 0.3 μM Compound 1): 114 | CBG glucuronide formed (rUGT1A9; 10 μM CBG + 0.3 μM Compound 1): 350000 area ratio | CBG glucuronide formed, Percent of control (rUGT1A9; 10 μM CBG + 0.3 μM Compound 1): 94.4 | CBG detected (CBG loss) (rUGT1A9; 10 μM CBG + 1 μM Compound 1): 1210 pmol | CBG detected, Percent of control (rUGT1A9; 10 μM CBG + 1 μM Compound 1): 106 | CBG glucuronide formed, Percent of control (rUGT1A9; 10 μM CBG + 1 μM Compound 1): 92.6 | CBG detected (CBG loss) (rUGT1A9; 10 μM CBG + 3 μM Compound 1): 1200 pmol | CBG detected, Percent of control (rUGT1A9; 10 μM CBG + 3 μM Compound 1): 105 | CBG glucuronide formed, Percent of control (rUGT1A9; 10 μM CBG + 3 μM Compound 1): 93.6 | CBG detected (CBG loss) (rUGT1A9; 10 μM CBG + 10 μM Compound 1): 1140 pmol | CBG detected, Percent of control (rUGT1A9; 10 μM CBG + 10 μM Compound 1): 99.8 | CBG glucuronide formed, Percent of control (rUGT1A9; 10 μM CBG + 10 μM Compound 1): 92.8 | metabolism of CBG in the presence of Compound 1 (in words) (rUGT1A9; 0.01-10 μM Compound 1, CBG disappearance or glucuronide formation): essentially unchanged

Reference: patent US12433903B2 (priority 2021, dated 2025)
